Test results published in US9029389B2 (Institut Pasteur Korea, priority 2011, dated 2015).

Target: T1, Human 5-lipoxygenase (Homo sapiens, UniProt P09917)
T1 construct: purchased Cayman 60402; host or cells: insect cells
T1 sequence (P09917 1-674): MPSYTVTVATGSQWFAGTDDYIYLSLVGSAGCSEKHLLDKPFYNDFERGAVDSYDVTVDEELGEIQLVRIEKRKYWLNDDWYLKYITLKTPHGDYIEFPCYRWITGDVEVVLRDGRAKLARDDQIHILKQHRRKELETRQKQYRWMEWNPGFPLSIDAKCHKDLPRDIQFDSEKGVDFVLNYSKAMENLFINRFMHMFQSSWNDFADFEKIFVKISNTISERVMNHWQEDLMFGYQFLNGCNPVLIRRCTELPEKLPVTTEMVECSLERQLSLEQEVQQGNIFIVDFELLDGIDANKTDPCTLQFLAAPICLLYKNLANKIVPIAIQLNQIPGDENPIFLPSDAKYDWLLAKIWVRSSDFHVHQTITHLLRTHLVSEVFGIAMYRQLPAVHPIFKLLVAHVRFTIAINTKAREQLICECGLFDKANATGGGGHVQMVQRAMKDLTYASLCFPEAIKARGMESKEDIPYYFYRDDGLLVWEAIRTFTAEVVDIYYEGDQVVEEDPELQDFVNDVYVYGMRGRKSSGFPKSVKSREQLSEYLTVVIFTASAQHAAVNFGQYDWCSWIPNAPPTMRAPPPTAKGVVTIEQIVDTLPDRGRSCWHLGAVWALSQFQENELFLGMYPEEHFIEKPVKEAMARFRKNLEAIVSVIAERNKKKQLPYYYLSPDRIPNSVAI
Assay: Activity of compounds against 5-LO enzyme (LTB4 measurement and/or fluorescence method)
Type: biochemical
Conditions: 5-LO, single concentration of 10 uM in duplicate
Procedure: The activity of compounds against 5-LO were determined by measuring LTB4 (leukotriene B4) levels and/or by a fluorescence method. Both approaches are outlined in more detail below;
Human 5-lipoxygenase (Cayman, Cat#60402) produced in insect cells was pre-incubated with compound for 15 min at RT in incubation buffer (50 mM Tris-Cl, pH 7.4, 2 mM CaCl2, 0.1 mM ATP, 1% DMSO). The enzymatic reaction was started by adding arachidonic acid to a final concentration of 3 uM. After 5 min of incubation at 37° C., the reaction was stopped by heatinactivation at 80° C. for 5 min. LTB4 levels were quantified by using LTB4 EIA kit (Cayman, Cat#520111) as instructed and/or LTB4 levelswere measured with LC/MS/MS using Quattro Premier™ XE tandem quadrupole mass spectrometer equipped with Acquity UPLC system (Waters, Milford, Mass.). The method was slightly modified as reported previously (Zweifel et al., 2008, Willey et al., 2008, Chappell et al, 2011). Briefly, chromatographic separation was carried out with Acquity UPLC BEH Shield RP18 Column (2.1 mm×50 mm, 1.7 μm particle size, Waters, Milford, Mass.). Sample injection volume was 10 μl, the column temperature was 35° C., the mobile phase A consisted of water with 0.1% formic acid and the mobile phase B consisted of acetonitrile with 0.1% formic acid. Flow rate was 0.4 mL/min and the gradient condition was as follows.
Relative quantification of LTB4 and LTB4-d4 (Internal Standard) was done using multi reaction monitoring (MRM) of the transitions of m/z 335→195 for LTB4, 339→197 for LTB4-d4 in electrospray ionization (ESI) negative mode. Desolvation temperature was 400° C., source temperature was 130° C. Capillary voltage, cone voltage, and collision voltage were 3.5 kV, 30V, and 20 eV, respectively. Nitrogen was used for desolvation (750 L/h) and cone (50 L/h) gas. Argon was used for collision gas (0.22 ml/min). The dwell time was 10 ms.
Besides the two methods quantifying LTB4 level, a fluorescence assay measuring 5-HpETE was introduced for high-throughput screening in a 384 well microplate format (Pufahl et al., 2007). For nonspecific ester cleavage of the acetate groups in H2DCFDA, the insect cell lysate expressing human 5-LO (Cayman Cat#60402) was incubated with H2DCFDA (50 mM Tris-Cl, pH 7.5, 2 mM CaCl2, 20 uM H2DCFDA, 500 mU 5-LO per reaction) for 5 minutes. Compound and enzyme mixture were pre-incubated for 5 minutes, and the enzymatic reaction was initiated by addition of ATP and arachidonic acid to a final concentration of 100 uM and 3 uM, respectively. After 5 minutes of incubation, the fluorescence was measured using Spectramax M5 (Molecular Device, Ex/Em=485 nm/530 nm). All steps were carried out at room temperature.
A total of 378 compounds were initially tested at a single concentration of 10 uM in duplicate with the results summarized in Table 1. From these 378 compounds, 53 compounds plus an additional 25 were selected for confirmation of activity by 6 or 11 point dose response in duplicate with the corresponding IC50 values outlined in Table 2.

Compound	inhibition at 10 µM [%]
CCc1nc2cc(Cl)ccn2c1C(=O)NCc1ccc(-c2ccccc2C#N)cc1 [compound 106, 7-Chloro-N-((2′-cyanobiphenyl-4-yl)methyl)-2-ethylimidazo[1,2-a]pyridine-3-carboxamide]	40 to 69
Cc1nc2cc(-c3ccccc3)ccn2c1C(=O)NCc1ccccc1 [compound 22, N-Benzyl-2-methyl-7-phenylimidazo[1,2-a]pyridine-3-carboxamide]	40 to 69
CCc1nc2ccc(Cl)cn2c1CNC1CCN(Cc2ccccc2)C1 (stereo not drawn) [compound 345, 1-Benzyl-N-((6-chloro-2-ethylimidazo[1,2-a]pyridin-3-yl)methyl)pyrrolidin-3-amine]	< 40
Cc1nc2ccccn2c1C(=O)NCc1ccc(Oc2ccccc2)cc1 [compound 6, 2-Methyl-N-(4-phenoxybenzyl)imidazo[1,2-a]pyridine-3-carboxamide]	< 40
CCc1nc2ccccn2c1C(=O)NCc1ccc2c(ccn2C)c1 [compound 50, 2-Ethyl-N-((1-methyl-1H-indol-5-yl)methyl)imidazo[1,2-a]pyridine-3-carboxamide]	< 40
CCc1nc2cc(Cl)ccn2c1C(=O)NCc1ccc(-c2ccc(C(F)(F)F)cc2)cc1 [compound 111, 7-Chloro-2-ethyl-N-((4′-(trifluoromethyl)biphenyl-4-yl)methyl)imidazo[1,2-a]pyridine-3-carboxamide]	< 40
CCc1nc2cc(Cl)ccn2c1C(=O)NCc1ccc(Oc2ccc(F)cc2)cc1 [compound 129, 7-Chloro-2-ethyl-N-(4-(4-fluorophenoxy)benzyl)imidazo[1,2-a]pyridine-3-carboxamide]	40 to 69

Next, values leading:

inhibition at 10 µM [%]	Compound
> 69	CCc1nc2cc(Cl)ccn2c1C(=O)NCc1ccc(-c2ccccc2C)cc1 [compound 85, 7-Chloro-2-ethyl-N-((2′-methylbiphenyl-4-yl)methyl)imidazo[1,2-a]pyridine-3-carboxamide]
40 to 69	CCc1nc2ccc(Cl)cn2c1C(=O)NCc1ccc(-c2ccccc2Cl)cc1 [compound 72, 6-Chloro-N-((2′-chlorobiphenyl-4-yl)methyl)-2-ethylimidazo[1,2-a]pyridine-3-carboxamide]
40 to 69	CCc1nc2ccc(C)cn2c1C(=O)NCc1ccc2ccn(C)c2c1 [compound 60, 2-Ethyl-6-methyl-N-((1-methyl-1H-indol-6-yl)methyl)imidazo[1,2-a]pyridine-3-carboxamide]
< 40	CCc1nc2ccc(Cl)cn2c1C(=O)N1CCC(OCc2ccc(C(F)(F)F)cc2)CC1 [compound 334, (6-chloro-2-ethylimidazo[1,2-a]pyridin-3-yl)(4-((4-(trifluoromethyl)benzyl)oxy)piperidin-1-yl)methanone]
< 40	CCc1nc2ccc(Cl)cn2c1CNCc1ccc(N(C)C)cc1 [compound 339, 4-((((6-chloro-2-ethylimidazo[1,2-a]pyridin-3-yl)methyl)amino)methyl)-N,N-dimethylaniline]
40 to 69	CCc1nc2ccc(Cl)cn2c1C(=O)NCC1CCCc2c1cnn2-c1ccc(F)cc1 (stereo not drawn) [compound 149, 6-Chloro-2-ethyl-N-((1-(4-fluorophenyl)-4,5,6,7-tetrahydro-1H-indazol-4-yl)methyl)imidazo[1,2-a]pyridine-3-carboxamide]
< 40	CCc1nc2cc(Cl)ccn2c1C(=O)NCc1ccc(-n2cccc2)cc1 [compound 117, N-(4-(1H-Pyrrol-1-yl)benzyl)-7-chloro-2-ethylimidazo[1,2-a]pyridine-3-carboxamide]
< 40	CCc1nc2ccc(Cl)cn2c1C(=O)NCc1ccc(N2CCC(COC3CCCC3)CC2)cc1 [compound 285, 6-Chloro-N-(4-(4-(cyclopentyloxymethyl)piperidin-1-yl)benzyl)-2-ethylimidazo[1,2-a]pyridine-3-carboxamide]
